Test: xn = mol fraction of the nth substance listed
Conditions: 101 kPa, Liquid; for viscosity: Concentric cylinders viscometry; for mass density: Vibrating tube method

COC(C)(C)C [2-methoxy-2-methylpropane] + CCCCCO
Conditions | mass density, 293.15 K [kg/m3] | mass density, 298.15 K [kg/m3] | mass density, 303.15 K [kg/m3] | mass density, 308.15 K [kg/m3] | viscosity, 293.15 K [mPa·s] | viscosity, 298.15 K [mPa·s] | viscosity, 303.15 K [mPa·s] | viscosity, 308.15 K [mPa·s]
x1 = 0.0105 | 813.89 | 810.25 | 806.55 | 802.82 | 3.895 | 3.372 | 2.932 | 2.562
x1 = 0.0197 | 813.34 | 809.68 | 805.95 | 802.2 | 3.775 | 3.273 | 2.852 | 2.493
x1 = 0.0321 | 812.56 | 808.89 | 805.15 | 801.39 | 3.615 | 3.143 | 2.743 | 2.406
x1 = 0.0401 | 812.06 | 808.37 | 804.63 | 800.86 | 3.516 | 3.059 | 2.675 | 2.344
x1 = 0.0506 | 811.39 | 807.69 | 803.93 | 800.15 | 3.394 | 2.958 | 2.588 | 2.274
x1 = 0.0595 | 810.83 | 807.12 | 803.35 | 799.56 | 3.292 | 2.872 | 2.517 | 2.214
x1 = 0.0699 | 810.18 | 806.45 | 802.67 | 798.87 | 3.176 | 2.778 | 2.438 | 2.149
x1 = 0.0811 | 809.49 | 805.73 | 801.94 | 798.11 | 3.061 | 2.683 | 2.357 | 2.079
x1 = 0.0901 | 808.93 | 805.14 | 801.33 | 797.5 | 2.97 | 2.606 | 2.294 | 2.028
x1 = 0.1042 | 808.03 | 804.23 | 800.41 | 796.55 | 2.841 | 2.495 | 2.214 | 1.949
x1 = 0.1506 | 805.02 | 801.2 | 797.3 | 793.39 | 2.45 | 2.168 | 1.927 | 1.716
x1 = 0.2078 | 801.27 | 797.36 | 793.4 | 789.41 | 2.058 | 1.837 | 1.648 | 1.473
x1 = 0.252 | 798.32 | 794.34 | 790.33 | 786.28 | 1.809 | 1.619 | 1.457 | 1.312
x1 = 0.301 | 795.01 | 790.96 | 786.88 | 782.75 | 1.574 | 1.418 | 1.281 | 1.159
x1 = 0.3492 | 791.65 | 787.57 | 783.41 | 779.21 | 1.387 | 1.254 | 1.135 | 1.033
x1 = 0.3996 | 788.14 | 783.99 | 779.75 | 775.48 | 1.207 | 1.098 | 1 | 0.9139
x1 = 0.4577 | 784 | 779.75 | 775.42 | 771.06 | 1.042 | 0.953 | 0.8735 | 0.8008
x1 = 0.4985 | 781.06 | 776.76 | 772.36 | 767.93 | 0.9442 | 0.8668 | 0.7962 | 0.7313
x1 = 0.5512 | 777.21 | 772.8 | 768.33 | 763.81 | 0.8364 | 0.7702 | 0.7102 | 0.6515
x1 = 0.5999 | 773.61 | 769.09 | 764.55 | 759.95 | 0.7504 | 0.6941 | 0.6401 | 0.5895
x1 = 0.6506 | 769.72 | 765.16 | 760.51 | 755.83 | 0.6719 | 0.6222 | 0.5765 | 0.5309
x1 = 0.6986 | 766.04 | 761.39 | 756.67 | 751.9 | 0.606 | 0.5627 | 0.5215 | 0.4812
x1 = 0.7451 | 762.49 | 757.72 | 752.92 | 748.06 | 0.5517 | 0.5167 | 0.4765 | 0.4421
x1 = 0.7976 | 758.12 | 753.3 | 748.39 | 743.42 | 0.4971 | 0.4653 | 0.4332 | 0.4011
x1 = 0.8534 | 753.55 | 748.61 | 743.59 | 738.51 | 0.4455 | 0.4172 | 0.3868 | 0.3584
x1 = 0.898 | 749.74 | 744.73 | 739.63 | 734.47 | 0.4101 | 0.3855 | 0.3594 | 0.3315
x1 = 0.9098 | 748.75 | 743.7 | 738.59 | 733.41 | 0.4017 | 0.3772 | 0.3526 | 0.3257
x1 = 0.9195 | 747.92 | 742.85 | 737.72 | 732.53 | 0.3954 | 0.3701 | 0.3467 | 0.3192
x1 = 0.9289 | 747.1 | 742.01 | 736.85 | 731.64 | 0.388 | 0.3658 | 0.3396 | 0.3137
x1 = 0.9419 | 745.96 | 740.85 | 735.67 | 730.43 | 0.3807 | 0.3564 | 0.3307 | 0.3102
x1 = 0.9495 | 745.29 | 740.17 | 734.96 | 729.72 | 0.3752 | 0.354 | 0.3276 | 0.3054
x1 = 0.9594 | 744.4 | 739.28 | 734.04 | 728.78 | 0.3682 | 0.3458 | 0.3227 | 0.3007
x1 = 0.9688 | 743.56 | 738.42 | 733.17 | 727.88 | 0.3623 | 0.3405 | 0.317 | 0.2966
x1 = 0.9792 | 742.63 | 737.46 | 732.2 | 726.89 | 0.3563 | 0.3352 | 0.3104 | 0.2916
x1 = 0.9902 | 741.63 | 736.44 | 731.16 | 725.83 | 0.3533 | 0.3291 | 0.3035 | 0.2863
